From patent publication US20240165188A1, “Method for the treatment of microbial overgrowth, imbalance and infections” (TRINUTRA LTD., priority 2021, published 2024)

Test system: C. albicans (Robin) Berkhout (ATCC catalogue no. 96901), fluconazole resistant
Assay: Disc diffusion assay, inhibition of Candida albicans growth on agar
Format: cell-based
Conditions: C. albicans fluconazole-resistant strain; undiluted (100%); 24 hours; FIG. 2
Experimental: A frozen stock of C. albicans (Robin) Berkhout (ATCC catalogue no. 96901) was thawed and incubated at 25 degrees Celsius for 72 hours in 200 YM medium. Following dilution 1:10, the culture was incubated for a further 24 hours. Following further dilution (1:10), the culture is grown for an additional 3 hours prior to use.
Antibiotic assay discs (Whatman discs, supplied by Sigma-Aldrich) were prepared in advance by means of saturating them with the test solutions and controls.
Agar plates were prepared and labelled as described in Example 1, above. The plates were then incubated at 25° C. and the area of inhibited fungal growth was measured and photographed after 24 hours.
• 1. Black seed oil 3% thymoquinone (TQ), 2% FFA. • 2. Black seed oil 3% thymoquinone (TQ), 10% FFA. • 3. Black seed oil 0.5% thymoquinone (TQ), 2% FFA. • 4. Black seed oil 0.5% thymoquinone (TQ), 10% FFA. • 5. Black seed oil 1.8% thymoquinone (TQ), 2% FFA formulation
• 6. Negative control (empty discs) • 7. Positive control I (0.05% zinc pyrithione). • 8. Positive control II (100 micrograms fluconazole)
All concentrations given above are w/w concentrations. The various black seed oil preparations were cold-pressed Nigella sativa oils obtained from NS Oils Ltd. (Kibbutz Sa'ad, Israel).
Each of the 5 test substances (at a concentration of 100%, i.e., undiluted) was assayed for antifungal activity, as described above.

SMILES: OC(Cn1cncn1)(Cn1cncn1)c1ccc(F)cc1F [fluconazole]
- size of the fungal inhibition zones (antifungal effect): lack of inhibitory activity
